In patent US6506339B1, “Method of sterilization” (Biomedical Design, Inc., priority 1997, dated 2003):
“And” between values parts separate entries of the source, which are not always exact repeats. Identical values can stand only once.

What was measured:
Format in all cases: cell-based
[1] = tested on: Bacillus subtilis ATCC 9372 spores; test: Sterilization test with or without coupling enhancer (Example 3); conditions: 20 mM EDC, 20% isopropyl alcohol, 72 hours, about 40° C.
Protocol: In the experiments described above, a coupling enhancer (Sulfo-NHS) was added to EDC during the sterilization process. The following experiment was designed to test the efficacy of EDC in the presence or absence of an enhancer. A sterilization test process was carried out employing about 5.7 to 6.6×10^5 Bacillus subtilis ATCC 9372 spores, inoculating them in sterile cups for 10 minutes. A solution of 10 mM HEPES, 0.85% NaCl, 20% isopropyl alcohol, pH 6.5 was then added to each of the cups, which solution contained 20 mM EDC and either 1 mM Sulfo-NHS or 1 mM NHS or no enhancer. Incubation was carried out for 72 hours (treatment duration) with the cups at about 40° C., and the solutions from the cups were then filtered. The filters were rinsed with a 0.1% peptone water solution to eliminate any residual EDC and/or enhancer and were then incubated on Trypticase Soy Agar (TSA) plates.

[2] = tested on: spores of Bacillus subtilis; test: Effect of EDC concentration, temperature and duration on spores on cross-linked tissue (Example 4); conditions: 20% IPA
Protocol: The following experiment was designed to test the effect of EDC concentration, of temperature and of duration of incubation on the inactivation of spores of Bacillus subtilis. The EDC concentrations tested were 5, 12.5 and 20 mM; the temperatures were 25, 32.5 and 40° C. for 4, 24 and 44 hours of incubation. […] Spores of Bacillus subtilis (about 2.5×10^5 per sample) were inoculated on tissue that had been cross-linked using the fixation method described in the '536 patent. The spores were allowed to contact the tissue for 10 minutes, after which time 50 ml of a solution of EDC at one of the concentrations indicated above was added to each cup containing the tissue plus the spores, and incubation was carried out at the respective temperatures and for the respective lengths of time. After such incubation for either 4, 24 or 44 hours, the solutions were filtered to recover the spores, and these were incubated on TSA plates for 2 weeks at 32 to 33° C. The tissue samples were washed with a solution containing a surfactant to fully extract the spores from the tissue, and the resulting solutions were filtered. After washing with 0.1% peptone water, the filters were incubated on TSA plates for 2 weeks at 32 to 33° C. in order to determine the number of survivors on or in the tissue. The colonies were enumerated for both the EDC solutions and the tissue wash solutions, and the results (numbers of colony forming units) were added.

[3] = tested on: Bacillus subtilis (niger) spores; test: Sterilization without isopropyl alcohol and sulfo-NHS, cups with or without porcine valve tissue (Example 4B); conditions: 40° C., no isopropyl alcohol or sulfo-NHS
Protocol: An experiment similar to that of Example 2 is carried out using EDC as a coupling agent in the absence of isopropyl alcohol and sulfo-NHS. Bacillus subtilis (niger) spores at levels of about 10^6 are inoculated in sterile cups, some of which contain cross-linked porcine aortic valve tissue, for approximately 10 minutes. Solutions (50 ml) of 25, 50 and 70 mM EDC in 10 mM TRIS, 0.85% NaCl, pH 6.5, are prewarmed to 40° C., respectively added to the cups, and incubated at 40° C. for 1 to 3 days. The solutions are then diluted and filtered in order to collect microorganisms. The valve tissue is washed for 20 minutes in a reciprocating shaker in the presence of peptone water containing polyethylenesorbitan monooleate (Tween 80) in order to extract all spores of microorganisms from the tissue; the peptone water solution is added to the corresponding filter. Next, the filters are rinsed with a 0.1% peptone water solution to eliminate any residual EDC and incubated on TSA plates for 14 days. The plates are examined every day for growth, counting the colony forming units (CFUs).

[4] = tested on: Bacillus subtilis (niger) spores; test: Sterilization without isopropyl alcohol at 55° C. (Example 4D)
Protocol: An experiment similar to that of Example 4A was carried out using a higher temperature of 55°. Bacillus subtilis (niger) spores at levels of 1.32×10^6 (Log10=6.12) were inoculated for approximately 10 minutes in sterile cups. Solutions (50 ml) of 5 and 50 mM EDC in 10 mM TRIS, 0.85% NaCl, pH 6.5 were prewarmed to 55° C. and then rapidly added to the cups. The cups were incubated at 55° C. for 1 and 10 hours; the solutions were then diluted and filtered in order to collect microorganisms. The filters were rinsed with a 0.1% peptone water solution and incubated on TSA plates for up to 14 days. The plates are examined daily for growth. […] This can be extrapolated to achieving complete kill in 2-3 hours. […] Although this cannot be extrapolated to complete kill over a greater length of time because of the low level of EDC remaining after 10 hours, it is expected that sterilization treatment using a concentration at least about 15 mM EDC at 55° C. for 10 hours would result in complete kill.

[5] = 5 mM EDC, 25° C., 4 hrs, about 2.5×10^5 spores on tissue
[6] = 5 mM EDC, 25° C., 44 hrs, about 2.5×10^5 spores on tissue
[7] = 5 mM EDC, 32.5° C., 24 hrs, about 2.5×10^5 spores on tissue
[8] = 5 mM EDC, 40° C., 4 hrs, about 2.5×10^5 spores on tissue
[9] = 12.5 mM EDC, 25° C., 24 hrs, about 2.5×10^5 spores on tissue
[10] = 12.5 mM EDC, 32.5° C., 4 hrs, about 2.5×10^5 spores on tissue
[11] = 12.5 mM EDC, 32.5° C., 24 hrs, about 2.5×10^5 spores on tissue (conditions 8-11, replicates), hydrochloride
[12] = 12.5 mM EDC, 32.5° C., 44 hrs, about 2.5×10^5 spores on tissue
[13] = 12.5 mM EDC, 40° C., 24 hrs, about 2.5×10^5 spores on tissue
[14] = 20 mM EDC, 25° C., 4 hrs, about 2.5×10^5 spores on tissue
[15] = 20 mM EDC, 25° C., 44 hrs, about 2.5×10^5 spores on tissue
[16] = 20 mM EDC, 32.5° C., 24 hrs, about 2.5×10^5 spores on tissue

## CCN=C=NCCCN(C)C.Cl [EDC, 1-ethyl-3(3-dimethylaminopropyl)carbodiimide hydrochloride]
[1]; enhancer 1 mM NHS
  NUMBER OF COLONY FORMING UNITS (SURVIVORS): 0
[1]; enhancer 1 mM sulfo-NHS
  NUMBER OF COLONY FORMING UNITS (SURVIVORS): 0
[1]; no enhancer
  NUMBER OF COLONY FORMING UNITS (SURVIVORS): 0
[2]; [5]
  LOG REDUCTION: .27
  SURVIVORS: 135000 CFUs
[2]; [6]
  LOG REDUCTION: 2.3
  SURVIVORS: 1300 CFUs
[2]; [7]
  LOG REDUCTION: 3.0
  SURVIVORS: 208 CFUs
[2]; [8]
  LOG REDUCTION: 2.4
  SURVIVORS: 1100 CFUs
[2]; 5 mM EDC, 40° C., 44 hrs, about 2.5×10^5 spores on tissue
  SURVIVORS: 21 CFUs
[2]; [9]
  LOG REDUCTION: 3.0
  SURVIVORS: 225 CFUs
[2]; [10]
  LOG REDUCTION: 1.6
  SURVIVORS: 5900 CFUs
[2]; [11]
  LOG REDUCTION: 3.6 and 3.9 and 3.4 and 3.7
  SURVIVORS: 57 CFUs and 34 CFUs and 94 CFUs and 44 CFUs
[2]; [12]
  LOG REDUCTION: 3.9
  SURVIVORS: 33 CFUs
[2]; [13]
  LOG REDUCTION: 4.0
  SURVIVORS: 27 CFUs
[2]; [14]
  LOG REDUCTION: 0.9
  SURVIVORS: 31400 CFUs
[2]; [15]
  LOG REDUCTION: 4.2
  SURVIVORS: 16 CFUs
[2]; [16]
  LOG REDUCTION: 4.0
  SURVIVORS: 24 CFUs
[2]; 20 mM EDC, 40° C., 4 hrs, about 2.5×10^5 spores on tissue
  SURVIVORS: 5 CFUs
[2]; 20 mM EDC, 40° C., 44 hrs, about 2.5×10^5 spores on tissue
  LOG REDUCTION: 5.4
[3]; 25 mM EDC
  time within which effective sterilization (inactivation of 1×10^6 spores) occurs: ≤ 24 hours
[3]; 50 mM EDC
  time within which effective sterilization (inactivation of 1×10^6 spores) occurs: ≤ 24 hours
[3]; 70 mM EDC
  time within which effective sterilization (inactivation of 1×10^6 spores) occurs: ≤ 24 hours
[4]; 5 mM EDC, 1 hour, 1.32×10^6 spores, no isopropyl alcohol
  log reduction: 0.512
[4]; 5 mM EDC, 10 hours, 1.32×10^6 spores, no isopropyl alcohol
  log reduction: 4.46
[4]; 50 mM EDC, 10 hours, 1.32×10^6 spores, no isopropyl alcohol
  inactivation of spores: effectively inactivated these spores
[4]; 50 mM EDC, extrapolated from the one-hour log reduction
  time to complete kill (extrapolated): 2 to 3 h
[4]; 50 mM EDC, one hour, 1.32×10^6 spores, no isopropyl alcohol
  log reduction: 3.04
